Legend:
[1] = tested on: patients having type II diabetes or impaired glucose tolerance; test: HOMA-index in human patients under i.v. H2 relaxin; format: in vivo; details: i.v. over 16 hrs
Text: In a study approved by the local ethical committee (Charité, Berlin, Germany) twelve patients (n=12) having type II diabetes or impaired glucose tolerance received intravenous synthetic H2 relaxin over a period of 16 hrs followed by a 24-hr follow-up. The anti-diabetic treatment of those patients was not varied. The improved HOMA-2 model used was in the present example because it reflects better human physiology. A HOMA of >2 indicates a potential insulin resistance; a HOMA of >2.5 beginning insulin resistance and a HOMA>5.0 is an average value of insulin resistance in untreated patients with manifest type-2 diabetes.
Of those twelve patients in this study two patients received sequential treatment for 8 hours each with dosages equivalent to 10 and 30 μg/kg of subject body weight per day, 6 patients received sequential treatment with 240 and 480 μg/kg of subject body weight per day, and another 4 patients received a constant infusion of 960 μg/kg of subject body weight per day. This was completed by follow-up determinations of glucose and insulin levels in serum 24 hours post termination of the i.v. relaxin administration.

[2] = tested on: Zucker Diabetic Fatty rats; test: HOMA-index in ZDF rats under sc relaxin; format: in vivo, rat; details: 10-week old male ZDF rats, sc 500 μg/kg per day, within the 48-hour period
Text: The homeostatic model assessment (HOMA=Insulin (μU/mi)×Glucose (mmol/l)/22.5) allows a quantification of insulin resistance and beta-cell function on the basis of mathematical equations describing glucose regulation as a feedback loop (see Matthews D R at al. Diabetologia 1985; 28(7): 412-9); Turner R C et al, Metabolism 1985; 28 (11): 1086-96). In order to assess the effects of relaxin on a diabetic metabolism we determined the HOMA of 10-week old male Zucker Diabetic Fatty rats (#25) pre-, during and post subcutanous administration of porcine relaxin (500 μg/kg rat per day). Thus, we determined the glucose and insulin levels in serum of 25 ZDF rats prior and 48 hours after sc administration of porcine relaxin. This was completed by follow-up determinations of glucose and insulin concentrations in serum 48 hours post the termination of the administration of porcine relaxin.

[3] = over the entire dose range, previous pilot study (Dschietzig et al. 2009); cited from earlier work
[4] = cited from earlier work
[5] = Effect of relaxin on glucose levels in blood; details: in vivo
[6] = tested on: rat insulinoma cells (INS-1 cells); test: Insulin secretion of INS-1 cells under sustained glucose concentrations (rat insulin ELISA); format: cell-based
Experimental: In a further study we examined whether porcine relaxin has any effect on insulin expression and/or secretory capacity of pancreatic beta-cells. 2.5×10^5 rat insulinoma cells (INS-1 cells; see Mergler S et al, in Cellular Signalling (2008), doi: 10.1016/j.cellsig.2008.08.015) were plated in a 24-well plate and grown for three days in […] medium with supplements (Moore G. E. et. al., Culture of Normal Human Leukoctyes.” JAMA, v. 199, 519-524 (1967). On the day of the experiment, the medium was removed, and the INS-1 cells were washed three times and then preincubated for 30 min in KRB (Krebs-Ringer buffer: 115 mM NaCl, 5.9 mM KCl, 1.2 mM MgCl2, 1.2 mM NaH2PO4, 1.2 mM Na2PO4, 2.5 mM CaCl2, 25 mM NaHCO3, pH 7.4) comprising 0.5% BSA and 3.3 mM glucose. Cells were washed again with phosphate buffered saline (PBS: 137 mM NaCl, 2.7 mM KCl, 12 mM phosphate, pH 7.4) and incubated with different physiological and pathological glucose concentrations (2.8, 5.6, 11.2, 16.7, 33.2 mmol/L) for 48 hrs. After another washing, the amounts of insulin secreted by the INS-1 cells into the supernatant over another 48 hrs under the very same glucose conditions were determined using a rat insulin ELISA kit (units: ng/dl) (Immundiagnostik AG, Bensheim, Del.—Article No. KA80INSRT1). […]

**Q.** For human relaxin-2 (H2 relaxin), which “homeostatic model assessment (HOMA) in each diabetic patient (FIG. 2A)” value ([1]; 10 to 960 μg/kg per day, diabetic patients) is on record?
**A.** improved

**Q.** And the “homeostatic model assessment (HOMA) in non-diabetic subjects” value ([1]; subjects having an initial HOMA of less than 2.0)?
**A.** no or little impact

**Q.** Which “HOMA value of each animal (FIG. 1A)” value [2] does the source give for porcine relaxin-1 [porcine RLX] here?
**A.** reduced HOMA value

**Q.** What does the source list for relaxin?
**A.** clinically adverse effects [3]: no clinically adverse effects were observed; half-life in vivo [4]: about two; direct effect on glucose levels in blood [5]: not found any direct effect; insulin secretion (as determined in cell supernatants) ([6]; 10 nM porcine relaxin-1, baseline and high-glucose conditions, secretion period of 48 hours, INS-1 cells): increased insulin secretion; high glucose-induced down-regulation of insulin expression and/or secretory capacity ([6]; 10 nmol/L porcine relaxin-1, cultured rat INS-1 cells, n=6, P<0.05 vs. control): efficient in preventing

From patent publication US10842851B2, “Relaxin for treating patients afflicted of impaired glucose tolerance” (Immundiagnostik AG, priority 2012, dated 2020)
